Measured values from patent US20100168105A1, “Spirocyclopropyl Piperidine Derivatives” (priority 2007, published 2010).

Legend:
[1] = biological target: human histamine H3 receptors (full-length H3, isoform 445) (Homo sapiens, UniProt Q9Y5N1); conditions: hH3 binding IC50 (nM), inhibition of 1.4 nM [3H]-N-α-methylhistamine binding to CHO-K1 membranes expressing human H3, SPA, 1.5 hr;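 also: scintillation counts read after the 1.5 hr incubation at room temperature with shaking, Imetit serving as reference control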
Chain of human histamine H3 receptors (full-length H3, isoform 445) (Q9Y5N1 whole entry, canonical isoform): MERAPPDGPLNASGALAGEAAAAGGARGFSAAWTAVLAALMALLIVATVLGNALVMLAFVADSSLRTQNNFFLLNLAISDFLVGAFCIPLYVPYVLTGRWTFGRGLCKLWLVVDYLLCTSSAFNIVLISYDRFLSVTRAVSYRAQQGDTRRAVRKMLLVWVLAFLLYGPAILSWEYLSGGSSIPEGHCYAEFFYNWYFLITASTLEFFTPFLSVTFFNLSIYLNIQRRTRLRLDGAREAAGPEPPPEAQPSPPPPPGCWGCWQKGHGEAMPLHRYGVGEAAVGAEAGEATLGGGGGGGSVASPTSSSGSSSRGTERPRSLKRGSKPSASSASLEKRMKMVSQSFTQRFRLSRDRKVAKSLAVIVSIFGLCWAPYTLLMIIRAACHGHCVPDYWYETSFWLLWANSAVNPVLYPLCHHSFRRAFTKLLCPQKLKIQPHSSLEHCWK
Method: Histamine H3 SPA with the Agonist Radioligand [^3H]—N-α-methylhistamine
Reproducibility of the assay is such that IC50 curves can be generated in singlicate. Single poke (SP) testing was done in triplicate.
Membranes, prepared from CHO-K1 cells stably expressing the human histamine H3 receptor, were obtained from ACS.
Tested formula I compounds were provided as solubilized samples in neat DMSO. Serial dilutions were performed in DMSO.
Plates were read on a Perkin Elmer TopCount. CPM data were used to analyze unless DPM data generated by a quench curve were required.
• 1. 1 mg/ml BSA was added to assay buffer (AB) on day of assay. • 2. […] Buffer volume was split between beads and membranes to allow for polytroning of membranes prior to addition to beads. • a. […] Waited a minimum of 15 minutes prior to adding membranes (See b. below.). • b. […] The homogenized membrane mixture was combined with the beads and a minimum of 30 minutes was waited prior to dispensing to plate. • 3. Formula I compounds: For Single Poke, 2 μl 1 mM of a compound in accordance with formula I was dispensed to Optiplates (triplicate plates) for final concentration of 10 μM. […] Imetit (see below) was used as a control. • 4. […] 5 μl samples were calculated in quadruplicate on the β counter. […] (For IC50s, use final concentration on calculation tab of ABase template.)
• 1. […] 2 μl of the formula I compound dilution was mixed and then transferred into assay plates. DMSO was removed and 2 μl of 100 μM Imetit was added to the wells. • 3. 178 μl bead/membrane mixture was dispensed into the assay plate. • 4. 20 μl [^3H]-NAMH was added with Rapid Plate. The assay plate was sealed and incubated for 1.5 hr on RT shaker at speed ˜6.5. • 5. The assay plate was subsequently centrifuged at 1000 rpm for 10 minutes. • 6. The count was performed on TopCount using one of the 3H SPA H3 Quench programs.
The DPM data was analyzed when tSIS was less than that associated with 70% of full scale on the quench curve (tSIS<25%). Otherwise, CPM data was used.

[2] = biological target: T1, human Histamine H3 receptor (hH3R) (Homo sapiens, UniProt Q9Y5N1); experiment: Guanosine 5'-O-(3-[35S]thio)triphosphate [GTPγS] Binding Assay; type: biochemical; conditions: antagonist activity; membranes from CHO cells expressing hH3R, (R)-α-methyl histamine 30 nM, [35S]GTPγS 0.2 nM, 90 minutes
T1 construct: expressed in transfected cells; host or cells: CHO cells (membranes)
T1 sequence (Q9Y5N1 whole entry): as the sequence (Q9Y5N1 whole entry, canonical isoform) above
Method: Guanosine 5′-O-(3-[^35]thio)triphosphate [GTPγS] Binding Assay
The GTPγS binding assay can be used to investigate antagonist properties of compounds in CHO cells (Chinese Hamster Ovary) transfected with human Histamine H3 receptor (hH3R). […] To determine antagonist activity, (R)-α-methyl histamine (30 nM) is added in 96 well SPA plate with [^35S]GTPγS (0.2 nM) and various concentration of H3R antagonists. The GTPγS binding assay is started with addition of the mixture membrane/saponine/GDP and incubated for 90 minutes at room temperature. The amount of bound [^35S]GTPγS is determined by using the MicroBeta Trilux counter (PerkinElmer). The percentage of [^35S]GTPγS bound in each sample is calculated as a percentage of that bound control sample incubated in absence of H3 antagonist. Duplicate determinations are obtained for each concentration, and the data are analyzed using ExcelFit4 to obtain the IC50.

IC50 [1] [nM]	IC50 [2] [nM]	SMILES
390	–	O=C(C1CC12CCN(C1CCOCC1)CC2)N1CCN(CC2CCCCC2)CC1 (stereo not drawn) [Example 2, (4-Cyclohexylmethyl-piperazin-1-yl)-[6-(tetrahydro-pyran-4-yl)-6-aza-spiro[2.5]oct-1-yl]-methanone]
35.1	5.5	O=C(C1CC12CCN(C1CCOC1)CC2)N1CCN(C2CCC2)CC1 (stereo not drawn) [Example 33, (4-Cyclobutyl-piperazin-1-yl)-[6-(tetrahydro-furan-3-yl)-6-aza-spiro[2.5]oct-1-yl]-methanone]
50.9	87.5	CC(C)N1CCN(C(=O)C2CC23CCN(C2CCOCC2)CC3)CC1 (single isomer, unassigned) [Example 29, (4-Isopropyl-piperazin-1-yl)-[6-(tetrahydro-pyran-4-yl)-6-aza-spiro[2.5]oct-1-yl]-methanone]
24.4	13.5	O=C(C1CC12CCN(CCN1CCOCC1)CC2)N1CCN(C2CCC2)CC1 (stereo not drawn) [Example 34, (4-Cyclobutyl-piperazin-1-yl)-[6-(2-morpholin-4-yl-ethyl)-6-aza-spiro[2.5]oct-1-yl]-methanone]
594	–	O=C(C1CC12CCN(c1cccc(Cl)n1)CC2)N1CCN(C2CCC2)CC1 (stereo not drawn) [Example 42, [6-(6-Chloro-pyridin-2-yl)-6-aza-spiro[2.5]oct-1-yl]-(4-cyclobutyl-piperazin-1-yl)-methanone]
97.2	22.5	CN1CCC(N2CCC3(CC2)CC3C(=O)N2CCN(C3CCCCC3)CC2)CC1 (stereo not drawn) [Example 20, (4-Cyclohexyl-piperazin-1-yl)-[6-(1-methyl-piperidin-4-yl)-6-aza-spiro[2.5]oct-1-yl]-methanone]
4.43	8.8	O=C(C1CC12CCN(C1CCOCC1)CC2)N1CCN(C2CCCC2)CC1 (stereo not drawn) [Example 12, (4-cyclopentylpiperazin-1-yl)(6-(tetrahydro-2H-pyran-4-yl)-6-azaspiro[2.5]octan-1-yl)methanone]
10.1	14.3	O=C(C1CC12CCN(C1CCCSC1)CC2)N1CCN(C2CCC2)CC1 (stereo not drawn) [Example 30, (4-Cyclobutyl-piperazin-1-yl)-[6-(tetrahydro-thiopyran-3-yl)-6-aza-spiro[2.5]oct-1-yl]-methanone]
419	–	O=C(C1CC12CCN(CCOCc1ccccc1)CC2)N1CCN(C2CCCCC2)CC1 (stereo not drawn) [Example 25, [6-(2-Benzyloxy-ethyl)-6-aza-spiro[2.5]oct-1-yl]-(4-cyclohexyl-piperazin-1-yl)-methanone]
1400	1200	CN1CCN(C(=O)C2CC23CCN(C2CCOCC2)CC3)CC1 (stereo not drawn) [Example 7, (4-Methyl-piperazin-1-yl)-[6-(tetrahydro-pyran-4-yl)-6-aza-spiro[2.5]oct-1-yl]-methasone]
2.66	13.2	CC(C)N1CCN(C(=O)C2CC23CCN(C2CCOCC2)CC3)CC1 (single isomer, unassigned) [Example 28, (4-Isopropyl-piperazin-1-yl)-[6-(tetrahydro-pyran-4-yl)-6-aza-spiro[2.5]oct-1-yl]-methanone]
1300	–	CN1CCC(N2CCC3(CC2)CC3C(=O)N2CCN(C)CC2)CC1 (stereo not drawn) [Example 6, (4-Methyl-piperazin-1-yl)-[6-(1-methyl-piperidin-4-yl)-6-aza-spiro[2.5]oct-1-yl]-methanone]
11.3	13.5	O=C(C1CC12CCN(C1CCCCC1)CC2)N1CCN(C2CCC2)CC1 (stereo not drawn) [Example 31, (4-Cyclobutyl-piperazin-1-yl)-(6-cyclohexyl-6-aza-spiro[2.5]oct-1-yl)-methanone]
65.2	16.5	O=C(C1CC12CCN(CCc1ccccc1)CC2)N1CCN(C2CCCCC2)CC1 (stereo not drawn) [Example 16, (4-Cyclohexyl-piperazin-1-yl)-(6-phenethyl-6-aza-spiro[2.5]oct-1-yl)-methanone]
542	–	COc1cccc(N2CCC3(CC2)CC3C(=O)N2CCN(C3CCC3)CC2)n1 (stereo not drawn) [Example 41, (4-Cyclobutyl-piperazin-1-yl)-[6-(6-methoxy-pyridin-2-yl)-6-aza-spiro[2.5]oct-1-yl]-methanone]
791	–	Cc1ccc(N2CCC3(CC2)CC3C(=O)N2CCN(C3CCC3)CC2)cc1 (stereo not drawn) [Example 45, (4-Cyclobutyl-piperazin-1-yl)-(6-p-tolyl-6-aza-spiro[2.5]oct-1-yl)-methanone]
470	–	COC(=O)c1ccc(N2CCC3(CC2)CC3C(=O)N2CCN(C3CCC3)CC2)cc1 (stereo not drawn) [Example 40, 4-[1-(4-Cyclobutyl-piperazine-1-carbonyl)-6-aza-spiro[2.5]oct-6-yl]-benzoic acid methyl ester]

IC50 [1] [nM]	IC50 [2] [nM]	SMILES
10000	–	O=C(C1CC12CCN(c1ccc(C(F)(F)F)cn1)CC2)N1CCN(C2CCCCC2)CC1 (stereo not drawn) [Example 46, (4-Cyclohexyl-piperazin-1-yl)-[6-(5-trifluoromethyl-pyridin-2-yl)-6-aza-spiro[2.5]oct-1-yl]-methanone]
736	–	O=C(C1CC12CCN(c1ccccn1)CC2)N1CCN(C2CCC2)CC1 (stereo not drawn) [Example 44, (4-Cyclobutyl-piperazin-1-yl)-(6-pyridin-2-yl-6-aza-spiro[2.5]oct-1-yl)-methanone]
–	308	O=C(C1CC12CCN(C1CCOCC1)CC2)N1CCN(c2cccnc2)CC1 (stereo not drawn) [Example 48, (4-(pyridin-3-yl)piperazin-1-yl)(6-(tetrahydro-2H-pyran-4-yl)-6-azaspiro[2.5]octan-1-yl)methanone]
322	–	COc1ccc(N2CCN(C(=O)C3CC34CCN(C3CCOCC3)CC4)CC2)cc1 (stereo not drawn) [Example 15, [4-(4-Methoxy-phenyl)-piperazin-1-yl]-[6-(tetrahydro-pyran-4-yl)-6-aza-spiro[2.5]oct-1-yl]-methanone]
615	–	COCCN1CCC2(CC1)CC2C(=O)N1CCN(C2CCCCC2)CC1 (stereo not drawn) [Example 43, (4-Cyclohexyl-piperazin-1-yl)-[6-(2-methoxy-ethyl)-6-aza-spiro[2.5]oct-1-yl]-methanone]
5170	–	O=C(C1CC12CCN(c1ccc3c(c1)OCO3)CC2)N1CCN(C2CCCCC2)CC1 (stereo not drawn) [Example 47, (6-Benzo[1,3]dioxol-5-yl-6-aza-spiro[2.5]oct-1-yl)-(4-cyclohexyl-piperazin-1-yl)-methanone]
336	–	O=C(C1CC12CCN(C1CCOCC1)CC2)N1CCN(C2CCOCC2)CC1 (stereo not drawn) [Example 24, [6-(Tetrahydro-pyran-4-yl)-6-aza-spiro[2.5]oct-1-yl]-[4-(tetrahydro-pyran-4-yl)-piperazin-1-yl]-methanone]
1000	–	CCC(CC)CN1CCC2(CC1)CC2C(=O)N1CCN(C)CC1 (stereo not drawn) [Example 3, [6-(2-Ethyl-butyl)-6-aza-spiro[2.5]oct-1-yl]-(4-methyl-piperazin-1-yl)-methanone]
800	–	CN1CCN(C(=O)C2CC23CCN(C/C=C/c2ccccc2)CC3)CC1 (stereo not drawn) [Example 4, (4-Methyl-piperazin-1-yl)-[6-((E)-3-phenyl-allyl)-6-aza-spiro[2.5]oct-1-yl]-methanone]
336	–	CS(=O)(=O)c1ccc(N2CCC3(CC2)CC3C(=O)N2CCN(C3CCC3)CC2)cc1 (stereo not drawn) [Example 38, (4-Cyclobutyl-piperazin-1-yl)-[6-(4-methanesulfonyl-phenyl)-6-aza-spiro[2.5]oct-1-yl]-methanone]
207	–	CNC(=O)CN1CCC2(CC1)CC2C(=O)N1CCN(C2CCC2)CC1 (stereo not drawn) [Example 37, 2-[1-(4-Cyclobutyl-piperazine-1-carbonyl)-6-aza-spiro[2.5]oct-6-yl]-N-methyl-acetamide]
–	249	Cc1cc(N2CCN(C(=O)C3CC34CCN(C3CCOCC3)CC4)CC2)ccn1 (stereo not drawn) [Example 49, (4-(2-methylpyridin-4-yl)piperazin-1-yl)(6-(tetrahydro-2H-pyran-4-yl)-6-azaspiro[2.5]octan-1-yl)methanone]
–	115	Cc1cnccc1N1CCN(C(=O)C2CC23CCN(C2CCOCC2)CC3)CC1 (stereo not drawn) [Example 50, (4-(3-methylpyridin-4-yl)piperazin-1-yl)(6-(tetrahydro-2H-pyran-4-yl)-6-azaspiro[2.5]octan-1-yl)methanone]
182	–	CC(C)(C)OC(=O)CN1CCC2(CC1)CC2C(=O)N1CCN(C2CCC2)CC1 (stereo not drawn) [Example 36, [1-(4-Cyclobutyl-piperazine-1-carbonyl)-6-aza-spiro[2.5]oct-6-yl]-acetic acid tert-butyl ester]
573	–	O=C(C1CC12CCN(C1CCOCC1)CC2)N1CCN(c2ccccn2)CC1 (stereo not drawn) [Example 13, (4-Pyridin-2-yl-piperazin-1-yl)-[6-(tetrahydro-pyran-4-yl)-6-aza-spiro[2.5]oct-1-yl]-methanone]
361	–	COc1ccc(N2CCC3(CC2)CC3C(=O)N2CCN(C3CCC3)CC2)cc1 (stereo not drawn) [Example 39, (4-Cyclobutyl-piperazin-1-yl)-[6-(4-methoxy-phenyl)-6-aza-spiro[2.5]oct-1-yl]-methanone]
306	–	O=C(C1CC12CCN(Cc1ccccc1)CC2)N1CCN(C2CCCCC2)CC1 (stereo not drawn) [Example 23, (6-Benzyl-6-aza-spiro[2.5]oct-1-yl)-(4-cyclohexyl-piperazin-1-yl)-methanone]

SMILES	IC50 [1] [nM]	IC50 [2] [nM]
CN1CCN(C(=O)C2CC23CCN(CCc2ccccc2)CC3)CC1 (stereo not drawn) [Example 5, (4-Methyl-piperazin-1-yl)-(6-phenethyl-6-aza-spiro[2.5]oct-1-yl)-methanone]	640	–
